The subject of assay [1] is formalin-induced flinching and licking behavior. The assay is described as follows: formalin model of inflammatory pain in rats. It counts as in vivo.
Assay [2] concerns cold allodynia produced by CCI. Nature of the assay: Chronic Constriction Injury (CCI) model, cold allodynia. Format: in vivo, rat. On the procedure: The potential analgesic activity of CHF 3381 was evaluated the Chronic Constriction Injury (CCI) model described by Bennett et al (Pain 1988, 33: 87-107). Briefly, the rat left common sciatic nerve was exposed, and proximal to the sciatic trifurcation about 10 mm of nerve was freed of adhering tissue and four ligatures (4.0 silk ) were loosely tied around it with about 1 mm of spacing.
Two tests of hind limb withdrawal to thermal and cold stimuli were employed in this study. Each test was repeated on both the operated hind paw and the controlateral hind paw.
Cold allodynia was assessed in operated rats, confining them into a clear plastic cylinders placed upon a metal floor chilled by an underlying water bath. A thermistor placed on the floor indicated a surface temperature of about 5° C. In this experimental condition, after the ligation operated rats respond by lifting the affected hind paw elevated above the floor. […] A maximum cut-off time of 20 sec was set to avoid any possible interference with the sensitivity of the animal to respond to subsequent exposure to the cold stimulus. Animals were pre-screened twice with 20 min interval between tests, in order to select for animals displaying clear signs of cold allodynia, i.e. animals with a paw withdrawal latency on the ligated side of <13 sec in both trials.
The animals were then assigned to groups consisting of at least 10 animals per group. CHF 3381 (10-30-60 mg/kg i.p.) or vehicle were administered to animals 7-14 days after ligation and cold allodynia tested 1 and 2 hours after treatment. CHF 3381 also reversed cold allodynia produced by CCI. This effect was again observed to be both time- and dose-dependent with the results generally concurring with those from the thermal hyperalgesia studies. The effect was maximum at 60-120 min after the administration and significant at the two higher tested doses (Table 1).

In a further assay the test system is MAO (mono amino oxidase). Nature of the assay: MAO inhibiting activity. Format: biochemical.
In another assay the test system is seizure models. The following applies: in vivo; cited from earlier work.
The test system of assay [3] is acute pain, hot plate 55° C. The assay is described as follows: hot-plate test, mice. It counts as in vivo. To be noted: 15 min. On the procedure:
The effect of CHF 3381 was studied in acute pain with hot-plate test described by Eddy et al (1953). The test was performed on an electrically heated and thermostatically controlled copper surface, set to a temperature of 55 or 51° C. with mice and rats, respectively.
The animals were confined to the hot plate by a transparent observation chamber and the latency to the response consisting of licking of the hind paws, was measured. A cut-off period of 60 sec was used to avoid tissue damage.
After i.p. administration, CHF 3381 (30-45-60 and 100 mg/kg in mouse; 30-37-45 and 60 mg/kg in rats), produced a significant and dose-dependent increase in the latency of the hindpaw licking response compared to vehicle-treated animals (Table 6).
In general terms: Hot-plate and tail-flick tests time the reaction to a heat stimulus.

Each structure is given as a SMILES string. Where a name gives a salt, the structure may show the parent alone.

The text below walks through data of US20050222266A1, “2-indanylamino derivatives for the therapy of chronic pain” (priority 2002, published 2005).

As to `NC(=O)CNC1Cc2ccccc2C1` [CHF 3381, N-2(indanyl)-glicinamide hydrochloride], the “flinching and licking behavior during the early and late nociceptive phases” value in assay [1] is listed as “clearly suppressed”. Besides, the “Allodynia paw withdrawal latency” value in assay [2] (10 mg/kg i.p., 60 min) came to 7.75 ± 1.36 s; in assay [2] (10 mg/kg i.p., 120 min), 8.71 ± 1.88 s; in assay [2] (30 mg/kg i.p., 60 min) it was 9.96 ± 1.70 s; in assay [2] (30 mg/kg i.p., 120 min) it was 9.89 ± 1.70 s; in assay [2] (60 mg/kg i.p., 60 min), 11.2 ± 1.33 s; in assay [2] (60 mg/kg i.p., 120 min), 12.68 ± 1.63 s. Besides, the “inhibiting activity towards MAO” value in the assay with MAO (mono amino oxidase) is reported as “inhibiting activity”. Besides, the “antagonism of 4-aminopyridine- and bicuculline-induced tonic seizures” value in the assay on seizure models is listed as “weaker antagonist”. Besides, the “behavioral effects and lethality of systematically administered NMDA” value with seizure models is “antagonize”. Moreover, the “effect against maximal electroshock seizures, picrotoxin- and NMDA-induced hind limb tonic extension” value in the assay on seizure models is reported as “very effective”. Moreover, in the assay with seizure models, the “effect against pentylentetrazole- and picrotoxin-induced clonic seizures” value is “ineffective”. In addition, the “latency of the hindpaw licking response” value in assay [3] (30 mg/kg i.p.) is 19.40 ± 1.37 s; in assay [3] (45 mg/kg i.p.) it was 20.16 ± 1.73 s; in assay [3] (60 mg/kg i.p.), 26.95 ± 2.45 s; in assay [3] (100 mg/kg i.p.), 37.71 ± 3.17 s.
